Earlier results on 1 compound are cited in patent US20030083378A1, “Eye drops” (priority 2000, published 2003).

One data set relates to leukotrienes. Particulars: Japanese Unexamined Patent Publication No. Hei 2-1459.
The subject of another data set is respiratory anaphylaxis. Particulars: Japanese Unexamined Patent Publication No. Hei 2-1459.

Consider `CCCc1c(SCCCOc2ccc(C(C)=O)c(OCCCC(=O)O)c2CCC)ccc(C(C)=O)c1O` [KCA-757, 4-[6-acetyl-3-[3-[(4-acetyl-3-hydroxy-2-propylphenyl)thio]propoxy]-2-propylphenoxy]butyric acid], for which the Solubility result was “slightly soluble”. Moreover, the Leukotriene antagonist activity entry with leukotrienes is “potent and selective leukotriene antagonist activity”. In addition, the “Inhibitory function on respiratory anaphylaxis” value with respiratory anaphylaxis is on record as “inhibitory function on respiratory anaphylaxis”.
